In series [1] the target is T1, hENT1 (es) in DU145 cells (Homo sapiens, UniProt Q99808).
T1 construct: functional es-mediated transport (hENT1) in DU145 cells; endogenous in cells; host or cells: DU145 cells
T1 sequence (Q99808 1-456): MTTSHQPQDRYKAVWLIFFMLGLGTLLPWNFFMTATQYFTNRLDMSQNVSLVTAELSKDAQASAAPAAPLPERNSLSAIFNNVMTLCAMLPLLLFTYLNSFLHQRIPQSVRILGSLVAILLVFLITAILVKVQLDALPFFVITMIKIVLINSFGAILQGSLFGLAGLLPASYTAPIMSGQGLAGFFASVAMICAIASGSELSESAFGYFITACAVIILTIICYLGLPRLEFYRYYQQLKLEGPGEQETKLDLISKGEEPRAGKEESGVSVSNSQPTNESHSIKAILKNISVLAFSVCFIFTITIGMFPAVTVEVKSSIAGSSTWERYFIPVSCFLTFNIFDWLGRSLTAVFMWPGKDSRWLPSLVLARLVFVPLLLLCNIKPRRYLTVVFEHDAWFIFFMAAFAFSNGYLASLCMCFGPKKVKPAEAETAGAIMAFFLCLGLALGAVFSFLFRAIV
Put plainly: Cellular uptake assay of 3H-labelled nucleoside, NT inhibitor and self-competition. The series is classed as cell-based. On the procedure: FIG. 2 Comparative uptake of 10 μM [^3H]troxacitabine (0-240 min) (Panel B) and 10 μM [^3H]D-uridine (0-6 min) (Panel A) in the presence (▴) or absence ( ? ) of the hENT1 inhibitor, 100 nM NBMPP, in DU145 cells.
Cancer Res., 56: 4187-4191.
(FIG. 2A). In contrast, low levels of [^3H]troxacitabine were taken up and uptake was not affected by the presence of NBMPR (FIG. 2B).
DU145 cells: This experiment is designed to show whether [^3H]L-troxacitabine (10 μM) is taken up by DU145 cells and if the rate of uptake is affected by the addition of high concentrations (1 mM) of non-radioactive troxacitabine.

A further series concerns CEM cells. Kind of series: CellTiter 96 cell proliferation assay, 48 h exposure. The class given is cell-based. The settings on record: Homo sapiens, CCRF-CEM, 48 h, read-out: Chemosensitivity, 50% of the dose response curve (EC50), CEM + NBMPR (100 nM), 48 h exposure, mean ± SD. As for the experimental part: The chemosensitivity of suspension cells lines (e.g., CEM or CEM-derivatives) is assessed using the CellTiter 96 ? proliferation assay. […] Chemosensitivity is expressed as 50% (ECso) of the dose response curve determined, e.g., using GraphPad Prism 2.01 (GraphPad Software, San Diego, Calif.). Adherent cell lines (e.g., DU145 or DU145^R) are seeded (˜10^5 cells) in triplicate dishes, 24 h before drug exposure. Growth inhibition is determined by trypsinization and counting cells electronically.

Each structure is given as a SMILES string.

Regarding `Nc1ccn([C@@H]2CO[C@H](CO)O2)c(=O)n1` [Troxacitabine, troxacitabine], in series [1] (10 μM labelled), the “effect of non-radioactive troxacitabine (1 mM) on uptake” value is recorded as “no significant effect”. In addition, the “effect of NBMPR on uptake” value in series [1] (10 μM, 0-240 min, 100 nM NBMPR) is recorded as “not affected”. Also, the rate of uptake result in series [1] (10 μM, short (0-30 s) and prolonged exposures (0-4 h)) is reported as “very slow”. The concentration giving a half-maximal response (EC50) – broadly, the concentration that produces a half-maximal response – in the series with CEM cells was 210 ± 19 nM.

Source of the values: US20050256034A1, “Dioxolane analogs for improved inter-cellular delivery” (priority 2000, published 2005).
